What was measured:
Assay in all cases: relative viability (nuclei count vs DMSO), 5 days (fraction); higher = more cells survive
[1] = compound: C1=CC2=C(C=CC(=C2)C=C3C(=O)NC(=NCC4=CC=CS4)S3)N=C1 [RO-3306] + CS(=O)(=O)N1CCN(Cc2cc3nc(-c4cccc5[nH]ncc45)nc(N4CCOCC4)c3s2)CC1 [Pictilisib] (partner 1 µM)
Outline: (§1)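 Relative viability was taken as the ratio of nuclei in treated wells to nuclei in vehicle wells. Lung cancer cell lines in 1536-well plates received compounds by pin tool one day after seeding, either one drug alone or a fixed anchor-drug dose plus five library-drug doses (not always all listed) in √10 steps. Nuclei were counted on 4× images after 5 days of treatment, and values are medians of duplicate plates.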

[2] = compound: C1=CC2=C(C=CC(=C2)C=C3C(=O)NC(=NCC4=CC=CS4)S3)N=C1 [RO-3306] + C[C@]1(O)C[C@@H](c2nc(-c3ccc4ccc(-c5ccccc5)nc4c3)c3c(N)nccn32)C1 [Linsitinib] (partner 1 µM)
Outline: as §1

[3] = compound: O=S(=O)(c1ccccc1)N(CC(F)(F)F)c1ccc(C(O)(C(F)(F)F)C(F)(F)F)cc1 + CC(C)C[C@H](NC(=O)[C@H](Cc1ccccc1)NC(=O)c1cnccn1)B(O)O [Bortezomib] (partner 0.002 µM)
Outline: as §1

[4] = compound: O=S(=O)(c1ccccc1)N(CC(F)(F)F)c1ccc(C(O)(C(F)(F)F)C(F)(F)F)cc1 + CCNC(=O)c1noc(-c2cc(C(C)C)c(O)cc2O)c1-c1ccc(CN2CCOCC2)cc1 [Luminespib] (partner 0.01 µM)
Outline: as §1

Row | Cell Line | relative viability ([1]; first compound 0.01 µM) | relative viability ([1]; first compound 0.03162 µM) | relative viability ([1]; first compound 0.1 µM) | relative viability ([1]; first compound 0.3162 µM) | relative viability ([1]; first compound 1 µM) | relative viability ([2]; first compound 0.01 µM) | relative viability ([2]; first compound 0.03162 µM) | relative viability ([2]; first compound 0.1 µM) | relative viability ([2]; first compound 0.3162 µM) | relative viability ([2]; first compound 1 µM) | relative viability ([3]; first compound 0.8 µM) | relative viability ([3]; first compound 2.53 µM) | relative viability ([3]; first compound 8 µM) | relative viability ([4]; first compound 0.8 µM) | relative viability ([4]; first compound 2.53 µM) | relative viability ([4]; first compound 8 µM)
1 | 201T | 0.671 | 0.616 | 0.668 | 0.663 | 0.559 | 1.11 | 1.01 | 1.08 | 1.09 | 0.999 | 1.02 | 1.04 | 1 | 1.05 | 0.887 | 0.975
2 | A549 | 0.551 | 0.485 | 0.477 | 0.504 | 0.323 | 0.762 | 0.305 | 0.622 | 0.69 | 0.623 |  |  |  |  |  | 
3 | A-427 | 0.707 | 0.735 | 0.638 | 0.781 | 0.483 | 1.14 | 1.1 | 1.07 | 1.06 | 1.21 | 0.973 | 0.916 | 1.07 | 0.919 | 0.774 | 1.05
4 | ABC-1 | 0.688 | 0.725 | 0.712 | 0.732 | 0.866 | 0.906 | 0.58 | 0.697 | 0.907 | 0.792 | 0.27 | 0.297 | 0.293 | 0.746 | 0.571 | 0.519
5 | BEN | 0.559 | 0.487 | 0.532 | 0.697 | 0.623 | 1.03 | 0.672 | 0.835 | 0.972 | 0.916 | 0.843 | 0.844 | 0.866 | 0.343 | 0.289 | 0.182
6 | CAL-12T | 0.359 |  |  | 0.411 | 0.462 | 0.889 | 0.607 | 0.889 | 0.824 | 0.874 |  | 0.964 | 0.958 | 0.38 | 0.251 | 0.354
7 | COR-L23 | 0.816 |  | 0.835 | 0.77 | 0.67 | 1.02 |  | 0.866 | 0.938 | 1.06 | 1.18 | 0.945 | 0.914 | 0.953 | 0.728 | 0.628
8 | COR-L 105 | 0.355 | 0.364 | 0.361 | 0.47 | 0.366 | 1.08 | 0.912 | 0.923 | 1.08 | 0.861 | 0.846 | 0.75 | 0.702 | 0.784 | 0.665 | 0.659
9 | Calu-6 | 1.1 | 0.97 | 0.934 | 0.866 | 0.91 | 1.1 | 0.695 | 0.978 | 0.997 | 1.15 | 0.885 | 0.852 | 0.769 |  |  | 
10 | ChaGo-K-1 | 0.692 | 0.701 | 0.449 | 0.69 | 0.49 |  |  |  |  |  | 1.1 | 0.933 | 1.47 | 0.573 | 0.719 | 0.706
11 | EBC-1 | 0.454 | 0.327 | 0.397 | 0.448 | 0.286 | 1.03 | 0.556 | 0.977 | 1.15 | 1.05 | 0.405 | 0.357 | 0.415 |  |  | 
12 | EKVX | 0.402 | 0.362 | 0.449 | 0.498 | 0.431 | 1.13 | 0.678 | 1.07 | 1.21 | 0.78 | 1.1 | 0.918 | 1.15 | 0.84 | 0.576 | 0.73
13 | EMC-BAC-2 | 0.503 | 0.511 | 0.54 | 0.531 | 0.483 | 0.901 | 0.678 | 0.797 | 0.851 | 0.773 | 1.07 | 1.1 | 1.02 | 1.28 | 1.18 | 1.17
14 | EPLC-272H | 0.3 | 0.211 | 0.275 | 0.255 | 0.287 | 1.2 | 0.768 | 1.24 | 1.04 | 0.96 | 0.964 | 0.899 | 0.656 | 0.166 | 0.497 | 0.265
15 | H3255 | 0.556 | 0.486 | 0.481 | 0.491 | 0.56 | 1.17 | 0.814 | 1.01 | 0.918 | 0.945 | 0.564 | 0.708 | 0.761 | 0.734 | 0.753 | 0.767
16 | HARA | 0.367 | 0.247 | 0.457 | 0.394 | 0.358 | 0.861 | 0.789 | 0.902 | 1.02 | 1.35 | 1.12 | 1.04 | 1.04 | 0.652 | 0.263 | 0.414
17 | HCC-15 | 0.707 | 0.603 | 0.717 | 0.815 | 0.542 | 0.924 | 0.755 | 0.863 | 0.892 | 0.839 | 1.08 | 0.923 | 0.948 | 0.299 | 0.233 | 0.245
18 | HCC-44 | 0.581 | 0.524 | 0.619 | 0.689 | 0.557 | 0.718 | 0.674 | 0.68 | 0.663 | 0.693 | 1.06 | 0.871 | 0.863 |  | 1.13 | 1.08
19 | HCC-78 | 0.198 | 0.213 | 0.209 | 0.224 | 0.229 | 0.481 | 0.43 | 0.447 | 0.734 | 0.47 | 0.531 | 0.39 | 0.52 |  |  | 
20 | HCC-366 | 0.118 | 0.0988 | 0.149 | 0.214 | 0.106 | 0.531 | 0.405 | 0.594 | 0.886 | 0.569 | 1.23 | 1.08 | 1.08 |  |  | 
21 | HCC-827 | 0.913 | 0.983 | 0.878 | 1.07 | 1.05 | 1.01 | 0.916 | 0.99 | 0.959 | 0.992 | 1.08 | 0.979 | 1.04 | 0.439 | 0.589 | 0.573

From the supplement of paper PMC10307832
